Measured values published in PubChem BioAssay AID330 (DTP/NCI, 2004).
Where “and” joins values, the source holds several entries; their conditions need not be identical. Equal entries are not always repeated. Inconclusive results and toxic doses are left out.

Tested on: P388 leukemia ip, CD2F1 mice, survival T/C
Test: NCI In Vivo Anticancer Drug Screen. Data for tumor model P388 Leukemia (intraperitoneal) in CD2F1 (CDF1) mice
Conditions: endpoint: median survival time, higher = longer survival
Method in brief: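 Mice carrying the transplanted tumor received test compound or vehicle. Survival was recorded in each group, and the value is the treated-group measurement divided by that of the vehicle-treated control group.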

[1] = dose: 25.0 mg/kg/injection, schedule: Q01DX009 (ip), vehicle: saline with Tween-80
[2] = dose: 50.0 mg/kg/injection, schedule: Q01DX009 (ip), vehicle: saline with Tween-80
[3] = dose: 100.0 mg/kg/injection, schedule: Q01DX009 (ip), vehicle: saline with Tween-80

CN=C(N)N/N=C(\C)c1ccc(-c2ccccc2)cc1
T/C (dose: 25.0 mg/kg/injection, schedule: Q04DX002 (ip), vehicle: saline with Tween-80): 105 % of control | T/C (dose: 50.0 mg/kg/injection, schedule: Q04DX002 (ip), vehicle: saline with Tween-80): 106 % of control

N#CC(C(=O)C(=O)Nc1ccccc1)c1c(Cl)cccc1Cl (stereo unspecified)
T/C (dose: 60.0 mg/kg/injection, schedule: Q01DX005 (ip), vehicle: saline with Tween-80): 98 % of control | T/C (dose: 120.0 mg/kg/injection, schedule: Q01DX005 (ip), vehicle: saline with Tween-80): 104 % of control | T/C (dose: 240.0 mg/kg/injection, schedule: Q01DX005 (ip), vehicle: saline with Tween-80): 98 % of control

CCOC(=O)c1ccc(NCc2ccc(CNc3ccc(C(=O)OCC)cc3)cc2)cc1
T/C (dose: 6.25 mg/kg/injection, schedule: Q01DX009 (ip), vehicle: saline with Tween-80): 105 % of control | T/C (dose: 12.5 mg/kg/injection, schedule: Q01DX009 (ip), vehicle: saline with Tween-80): 103 % of control | T/C [1]: 94 % of control | T/C [2]: 89 % of control | T/C [3]: 89 % of control

CCC(CC)C1SCC(=O)N1c1nncs1 (stereo unspecified)
T/C (dose: 50.0 mg/kg/injection, schedule: Q01DX005 (ip), vehicle: saline with Tween-80): 99 % of control | T/C (dose: 100.0 mg/kg/injection, schedule: Q01DX005 (ip), vehicle: saline with Tween-80): 105 % of control | T/C (dose: 200.0 mg/kg/injection, schedule: Q01DX005 (ip), vehicle: saline with Tween-80): 102 % of control

CC1(C)CC(OP(=O)(OCCN2CC2)OCCN2CC2)CC(C)(C)N1O
T/C [2]: 107 % of control | T/C [3]: 100 % of control | T/C (dose: 200.0 mg/kg/injection, schedule: Q01DX009 (ip), vehicle: saline with Tween-80): 96 % of control

Cc1cc(O)c(O)cc1C/C=C/c1ccccc1
T/C (dose: 2.5 mg/kg/injection, schedule: Q01DX009 (ip), vehicle: saline with Tween-80): 101 % of control | T/C (dose: 5.0 mg/kg/injection, schedule: Q01DX009 (ip), vehicle: saline with Tween-80): 100 % of control | T/C (dose: 10.0 mg/kg/injection, schedule: Q01DX009 (ip), vehicle: saline with Tween-80): 100 % of control

CB1NN=C(C)c2sccc21
T/C [1]: 102 % of control | T/C [2]: 103 % of control | T/C [3]: 86 % of control

Cc1c2cc[n+](C)cc2c(C)c2c1[nH]c1ccccc12
T/C (dose: 1.25 mg/kg/injection, schedule: Q04DX002 (ip), vehicle: water): 103 % of control and 117 % of control | T/C (dose: 2.5 mg/kg/injection, schedule: Q04DX002 (ip), vehicle: water): 114 % of control and 121 % of control | T/C (dose: 12.5 mg/kg/injection, schedule: Q04DX002 (ip), vehicle: distilled water + Tween-80): 122 % of control

CCCCOc1ccc(C(=O)OCCNC2CCCCC2)cc1N
T/C (dose: 6.25 mg/kg/injection, schedule: Q01DX009 (ip), vehicle: Klucel (hydroxypropylcellulose) (HPC)): 100 % of control | T/C (dose: 12.5 mg/kg/injection, schedule: Q01DX009 (ip), vehicle: Klucel (hydroxypropylcellulose) (HPC)): 101 % of control | T/C (dose: 25.0 mg/kg/injection, schedule: Q01DX009 (ip), vehicle: Klucel (hydroxypropylcellulose) (HPC)): 93 % of control | T/C (dose: 50.0 mg/kg/injection, schedule: Q01DX009 (ip), vehicle: Klucel (hydroxypropylcellulose) (HPC)): 91 % of control

O=[N+]([O-])c1ccc(S(=O)(=O)c2ccc([N+](=O)[O-])cc2)cc1
T/C (dose: 6.25 mg/kg/injection, schedule: Q04DX003 (ip), vehicle: suspension in saline): 100 % of control | T/C (dose: 12.5 mg/kg/injection, schedule: Q04DX003 (ip), vehicle: suspension in saline): 100 % of control | T/C (dose: 25.0 mg/kg/injection, schedule: Q04DX003 (ip), vehicle: suspension in saline): 108 % of control | T/C (dose: 50.0 mg/kg/injection, schedule: Q04DX003 (ip), vehicle: suspension in saline): 106 % of control

CCCCCCCCCCCCCCCC(=O)NCCCCC(N)C(=O)O (stereo unspecified)
T/C (dose: 50.0 mg/kg/injection, schedule: Q01DX009 (ip), vehicle: suspension in saline): 94 % of control | T/C (dose: 100.0 mg/kg/injection, schedule: Q01DX009 (ip), vehicle: suspension in saline): 98 % of control | T/C (dose: 200.0 mg/kg/injection, schedule: Q01DX009 (ip), vehicle: suspension in saline): 96 % of control

C=CC(=O)NCNC(=O)CCBr
T/C (dose: 25.0 mg/kg/injection, schedule: Q04DX003 (ip), vehicle: saline with Tween-80): 109 % of control | T/C [2]: 186 % of control | T/C (dose: 100.0 mg/kg/injection, schedule: Q04DX003 (ip), vehicle: saline with Tween-80): 150 % of control | T/C (dose: 200.0 mg/kg/injection, schedule: Q04DX003 (ip), vehicle: saline with Tween-80): 159 % of control and 190 % of control | T/C (dose: 300.0 mg/kg/injection, schedule: Q04DX003 (ip), vehicle: saline with Tween-80): 172 % of control
